Data: US12370157B2, “Method for the treatment of COVID-19 infections with palmitoylethanolamide” (Epitech Group S.p.A., priority 2021, dated 2025)

Assay: Plasma levels of the two forms of PEA
Details: in vivo

For CCCCCCCCCCCCCCCC(=O)NCCO [PEA-um, palmitoylethanolamide], the “Plasma levels, PEA-um compared with PEA-m” value was “substantially the same”.
